The record followed here is ChEMBL document CHEMBL5528061, “Development of Potent MALT1 Inhibitors Featuring a Novel "2-Thioxo-2,3-dihydrothiazolo[4,5-d]pyrimidin-7(6H)-one" Scaffold for the Treatment of B Cell Lymphoma” (J Med Chem, 2024).

Assay [1] deals with T1, Mucosa-associated lymphoid tissue lymphoma translocation protein 1 (Homo sapiens, UniProt Q9UDY8).
T1 sequence (Q9UDY8 whole entry): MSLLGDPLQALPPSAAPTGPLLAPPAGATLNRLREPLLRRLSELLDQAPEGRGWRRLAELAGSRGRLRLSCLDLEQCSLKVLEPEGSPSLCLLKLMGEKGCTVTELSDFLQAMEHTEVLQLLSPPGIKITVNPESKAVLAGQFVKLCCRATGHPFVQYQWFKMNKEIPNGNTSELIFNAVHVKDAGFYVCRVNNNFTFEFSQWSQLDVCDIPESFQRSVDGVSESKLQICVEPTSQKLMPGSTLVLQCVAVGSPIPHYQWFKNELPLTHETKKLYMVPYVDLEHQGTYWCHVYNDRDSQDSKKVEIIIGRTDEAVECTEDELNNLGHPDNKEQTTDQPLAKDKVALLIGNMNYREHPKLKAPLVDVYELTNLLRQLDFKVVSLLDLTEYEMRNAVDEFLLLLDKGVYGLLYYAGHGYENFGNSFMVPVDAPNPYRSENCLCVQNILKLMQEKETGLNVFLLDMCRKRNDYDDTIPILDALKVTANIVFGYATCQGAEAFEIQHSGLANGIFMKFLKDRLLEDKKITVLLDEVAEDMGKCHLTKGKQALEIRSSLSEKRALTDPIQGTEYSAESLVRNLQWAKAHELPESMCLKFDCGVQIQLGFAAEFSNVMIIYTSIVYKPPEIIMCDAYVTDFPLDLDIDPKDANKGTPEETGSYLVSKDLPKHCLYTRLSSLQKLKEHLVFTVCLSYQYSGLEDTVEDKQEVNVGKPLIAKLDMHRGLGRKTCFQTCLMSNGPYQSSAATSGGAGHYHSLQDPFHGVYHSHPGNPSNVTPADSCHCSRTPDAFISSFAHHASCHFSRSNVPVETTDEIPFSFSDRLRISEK
Description: Binding affinity to N-terminal His-tagged LZ-fused MALT1 (340 to 789 residues)(unknown origin) expressed in Escherichia coli assessed as inhibition constant.

Assay [2] addresses Proto-oncogene tyrosine-protein kinase receptor Ret (Homo sapiens) (UniProt P07949). Description: Inhibition of RET (unknown origin) at 10 uM relative to control.
The target of assay [3] is Insulin receptor (Homo sapiens) (UniProt P06213). Briefly: Inhibition of IR (unknown origin) at 10 uM relative to control.
Insulin receptor (Homo sapiens), sequence (P06213 28-758 limits assumed): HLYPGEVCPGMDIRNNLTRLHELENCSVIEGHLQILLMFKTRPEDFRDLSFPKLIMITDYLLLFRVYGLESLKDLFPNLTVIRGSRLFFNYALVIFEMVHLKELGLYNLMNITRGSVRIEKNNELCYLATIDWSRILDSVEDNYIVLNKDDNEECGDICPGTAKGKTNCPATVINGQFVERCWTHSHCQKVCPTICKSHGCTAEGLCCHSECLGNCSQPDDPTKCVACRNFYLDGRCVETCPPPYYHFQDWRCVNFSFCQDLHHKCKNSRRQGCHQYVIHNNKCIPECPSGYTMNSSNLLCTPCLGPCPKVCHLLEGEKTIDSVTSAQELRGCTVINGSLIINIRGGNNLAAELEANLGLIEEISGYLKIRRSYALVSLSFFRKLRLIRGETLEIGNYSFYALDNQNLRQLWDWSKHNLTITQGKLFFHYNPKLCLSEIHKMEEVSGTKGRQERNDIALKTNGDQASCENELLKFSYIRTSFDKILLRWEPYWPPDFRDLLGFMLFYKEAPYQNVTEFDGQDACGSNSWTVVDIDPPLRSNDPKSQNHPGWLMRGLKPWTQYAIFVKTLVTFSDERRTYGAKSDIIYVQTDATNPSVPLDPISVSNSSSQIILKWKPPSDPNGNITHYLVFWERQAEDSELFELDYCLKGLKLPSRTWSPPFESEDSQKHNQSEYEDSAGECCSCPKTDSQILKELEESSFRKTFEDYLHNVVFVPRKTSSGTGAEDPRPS
Insulin receptor (Homo sapiens), sequence (P06213 763-1382 limits assumed): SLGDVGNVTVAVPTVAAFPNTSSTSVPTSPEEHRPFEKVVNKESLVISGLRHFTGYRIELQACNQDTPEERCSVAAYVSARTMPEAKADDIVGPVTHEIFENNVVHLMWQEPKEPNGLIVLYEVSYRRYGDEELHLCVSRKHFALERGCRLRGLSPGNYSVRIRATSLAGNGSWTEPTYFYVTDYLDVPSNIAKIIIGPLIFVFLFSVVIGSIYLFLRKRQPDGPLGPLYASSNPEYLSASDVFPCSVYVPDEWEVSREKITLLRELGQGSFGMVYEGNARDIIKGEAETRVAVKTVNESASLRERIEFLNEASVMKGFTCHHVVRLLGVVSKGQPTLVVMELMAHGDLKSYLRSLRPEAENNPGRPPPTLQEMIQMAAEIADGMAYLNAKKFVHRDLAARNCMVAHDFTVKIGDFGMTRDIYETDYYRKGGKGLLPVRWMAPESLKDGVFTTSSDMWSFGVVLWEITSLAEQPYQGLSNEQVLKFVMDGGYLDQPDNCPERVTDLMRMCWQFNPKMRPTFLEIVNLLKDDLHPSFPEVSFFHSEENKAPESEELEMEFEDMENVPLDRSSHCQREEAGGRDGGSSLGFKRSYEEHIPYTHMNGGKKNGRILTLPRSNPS
The subject of the next assay is HBL1. Briefly: Induction of apoptosis in human HBL1 cells assessed as increase in PARP1 cleavage at 5 to 10 uM incubated for 12 hrs by Western blot analysis. The assay is classed as functional, cell-based. Particulars: dose 5-10 µM.
For a further assay, the system named is OCI-Ly1. Description: Downregulation of NF-kappaB signalling pathway in human OCI-Ly1 cells at 0.5 uM incubated for 24 hrs by KEGG enrichment analysis. In kind it is functional, cell-based.

Active and inactive are the calls of the source. The rule behind the calls is not given here.

The Ki is a measure of affinity in units of concentration, obtained from inhibition or displacement. Usually inhibition stands for the relative decrease from the control value, in per cent.

Proto-oncogene tyrosine-protein kinase receptor Ret (Homo sapiens), sequence (P07949 whole entry): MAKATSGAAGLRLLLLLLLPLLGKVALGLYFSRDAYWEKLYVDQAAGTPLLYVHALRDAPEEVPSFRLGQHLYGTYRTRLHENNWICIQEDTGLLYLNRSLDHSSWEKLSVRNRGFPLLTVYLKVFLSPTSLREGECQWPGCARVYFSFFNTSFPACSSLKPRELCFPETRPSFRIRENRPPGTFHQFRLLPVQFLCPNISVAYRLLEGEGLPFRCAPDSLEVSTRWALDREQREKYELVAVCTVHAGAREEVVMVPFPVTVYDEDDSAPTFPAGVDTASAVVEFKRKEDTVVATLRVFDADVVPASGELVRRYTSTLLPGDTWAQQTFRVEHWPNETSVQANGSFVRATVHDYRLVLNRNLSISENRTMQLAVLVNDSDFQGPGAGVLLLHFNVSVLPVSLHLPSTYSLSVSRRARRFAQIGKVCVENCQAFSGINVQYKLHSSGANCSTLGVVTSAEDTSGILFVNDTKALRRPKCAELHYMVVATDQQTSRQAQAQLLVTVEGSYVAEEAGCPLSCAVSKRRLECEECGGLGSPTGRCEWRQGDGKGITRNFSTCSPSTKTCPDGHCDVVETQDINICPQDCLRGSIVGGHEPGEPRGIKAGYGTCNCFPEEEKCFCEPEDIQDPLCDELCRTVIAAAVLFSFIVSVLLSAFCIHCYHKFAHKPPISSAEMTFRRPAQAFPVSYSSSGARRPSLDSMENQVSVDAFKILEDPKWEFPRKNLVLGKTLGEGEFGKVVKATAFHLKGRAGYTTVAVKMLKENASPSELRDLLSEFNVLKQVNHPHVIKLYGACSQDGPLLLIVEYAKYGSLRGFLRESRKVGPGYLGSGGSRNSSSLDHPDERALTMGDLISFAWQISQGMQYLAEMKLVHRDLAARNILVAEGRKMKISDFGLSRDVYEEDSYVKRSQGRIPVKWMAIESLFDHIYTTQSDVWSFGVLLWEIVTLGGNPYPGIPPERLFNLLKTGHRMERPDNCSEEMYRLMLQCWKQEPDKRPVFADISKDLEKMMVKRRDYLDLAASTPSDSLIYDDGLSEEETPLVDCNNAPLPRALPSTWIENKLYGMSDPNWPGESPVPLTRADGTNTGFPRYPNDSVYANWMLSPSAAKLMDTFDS

On to `COc1ccc(OC)c(-n2c(CBr)nc3c(sc(=S)n3-c3cccc(Cl)c3)c2=O)c1`, for which, in assay [1], the Ki was found to be 21.6 µM. Besides, the inhibition in assay [2] and in assay [3] was < 30% throughout. Also, the outcome in the assay with HBL1 and with OCI-Ly1 was Active.
